The results in this text go back to patent US20080287653A1, “METHOD FOR PRODUCING INHIBITORS AND INHIBITORS FORMED THEREFROM” (THE UNIVERSITY OF AKRON, priority 2007, published 2008).

One test deals with T1, HDAC8 (Homo sapiens, UniProt Q9BY41).
T1 construct: purchased
T1 sequence (Q9BY41 1-377): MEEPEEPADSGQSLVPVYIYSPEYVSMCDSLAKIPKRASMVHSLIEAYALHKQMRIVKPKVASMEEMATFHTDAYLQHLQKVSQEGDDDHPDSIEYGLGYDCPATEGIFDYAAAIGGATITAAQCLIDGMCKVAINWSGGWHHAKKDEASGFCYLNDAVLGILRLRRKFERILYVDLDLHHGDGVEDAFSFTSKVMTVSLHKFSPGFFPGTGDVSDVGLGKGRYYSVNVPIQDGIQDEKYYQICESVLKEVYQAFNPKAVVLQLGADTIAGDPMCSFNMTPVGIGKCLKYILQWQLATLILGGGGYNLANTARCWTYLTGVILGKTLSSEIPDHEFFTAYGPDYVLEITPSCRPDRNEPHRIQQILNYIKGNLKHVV
The test is described as follows: HPLC-based assay with purified HDAC8 (de(thio)acetylation of peptides). Also on record: key to HDAC8 (sensitive / resistant to HDAC8): +: Sensitive to HDAC8; —: Resistant to HDAC8. As to conditions: for formation of de(thio)acetylated peptide product by HDAC8: 0.3 mM peptide, 1.5 μM HDAC8, 2 hours at room temperature; for HDAC8 (sensitive / resistant to HDAC8): enzymatic dethioacetylation by HDAC8. The format is biochemical. Here is the method:
To test the foregoing premise, peptides 1b, 2, and 3a were allowed to be incubated for 2 hours at room temperature in the HDAC8 assay buffer in a HPLC-based HDAC8 assay. […] FIG. 5 provides representative HPLC chromatograms from HDAC8 assays with peptides 1b, 2, and 3a. All assays were performed in duplicate and essentially the same HPLC chromatograms were obtained for the duplicates. The small peak with tR˜27 minutes in the second chromatogram was from a minor impurity in the purified peptide 2 sample, rather than the dethioacetylated product. The lack of detectable dethioacetylation of peptide 3a was apparent from the absence of a peak with tR˜34 minutes, shown for peptide 3c in the third chromatogram.
Assay with purified HDAC8. The purified HDAC8 could be obtained from a commercial source for use with a HPLC-based HDAC8 assay. In brief, a HDAC8 assay solution had the following components: 25 mM Tris.HCl (pH 8.0), 137 mM NaCl, 2.7 mM KCl, 1 mM MgCl2, 1 mg/mL BSA (SIGMA Cat. #A3803 with reduced fatty acid content), 0.3 mM peptide 1b, 2, or 3a, and 1.5 μM HDAC8. […] An enzymatic reaction was initiated by the addition of HDAC8 at room temperature and was allowed to be incubated at room temperature for 2 hours before being quenched with the following stop solution: 1.0 M HCl and 0.16 M acetic acid. The quenched assay solutions were directly injected into a reversed-phase HPLC C18 column (100 Å, 0.46×25 cm), eluting with the following gradients of ddH2O containing 0.05% (v/v) trifluoroacetic acid (mobile phase A) and acetonitrile containing 0.05% (v/v) trifluoroacetic acid (mobile phase B): linear increase from 0% B to 35% B (for the assay with peptide 2 or 1b) or 40% B (for the assay with peptide 3a or […]) from 0-40 minutes (1 mL/min), and UV monitoring at 214 nm. […] The enzymatically formed peptide 1c was confirmed by its comigration with the chemically synthesized authentic sample and by MALDI-TOF mass spectrometric analysis, and was quantified by HPLC peak integration and comparison with that of synthetic authentic sample.

The subject of another test is SIRT1, SIRT2, and SIRT3. The test is described as follows: Dethioacetylation of inhibitor peptides under the sirtuin inhibition assay conditions. The class given is biochemical, human. As to conditions: same assay conditions as SIRT1/SIRT2/SIRT3 inhibition assays. On the procedure:
Inhibition assays with purified SIRT1, SIRT2, and SIRT3. GST-SIRT1 that could be produced in a laboratory was used for the SIRT1 inhibition assay. SIRT2 and SIRT3 are obtainable from commercial sources known to those skilled in the art. Consistent HPLC-based assay procedures were used for the inhibition assays with SIRT1, SIRT2, and SIRT3. In brief, an inhibition assay solution had the following components: 25 mM (or 50 mM for SIRT2 assay) Tris.HCl (pH 8.0) 137 mM NaCl, 2.7 mM KCl, 1 mM MgCl2, 1 mg/mL BSA (SIGMA Cat. #A3803 with reduced fatty acid content, for SIRT2 assay only), 0.5 mM β-NAD^+, 0.3 mM peptide substrate (peptide 1b for SIRT1 and SIRT2 assays; peptide 3b for SIRT3 assay), an inhibitor (peptide 1a, 2, or 3a) with varied concentrations including 0, and an enzyme (GST-SIRT1, 0.15 μM; SIRT2, 0.3 μM; or SIRT3, 2.0 μM). […] An enzymatic reaction was initiated by the addition of an enzyme at 37° C. and was allowed to be incubated at 37° C.: 10 minutes as follows: for SIRT1 assay, or 60 minutes for SIRT2 and SIRT3 assays. Incubation was quenched at the indicated time with the following stop solution: 100 mM HCl and 0.16 M acetic acid. The conversion of the limiting substrate to the product was maintained at ≦12%. The quenched assay solutions were directly injected into a reversed-phase HPLC C18 column (100 Å, 0.46×25 cm), eluting with the following gradients of ddH2O containing 0.05% (v/v) trifluoroacetic acid (mobile phase A) and acetonitrile containing 0.05% (v/v) trifluoroacetic acid (mobile phase B): linear increase from 0% B to 35% B (for SIRT1 assay) or 40% B (for SIRT2 and SIRT3 assays) from 0-40 minutes (1 mL/min), and UV monitoring at 214 nm. The enzymatic deacetylation products (peptide 1c in SIRT1 and SIRT2 assays; peptide 3c in SIRT3 assay) were confirmed by their comigration with the chemically synthesized authentic samples and by MALDI-TOF mass spectrometric analysis, and were quantified by HPLC peak integration and comparison with those of synthetic authentic samples. […] All peptide stock solutions were prepared in ddH2O. […]

Non-standard residues stand in square brackets, D forms with d. Residues, ends and D or L forms follow the SMILES beside them. Lys(Thioacetyl) = CC(=S)NCCCC[C@H](N)C(=O)O

As to `CC[C@H](C)[C@H](NC(=O)[C@@H](NC(=O)[C@H](CCCCN)NC(=O)[C@H](CCCNC(=N)N)NC(=O)[C@H](CC(C)C)NC(=O)[C@H](CC(C)C)NC(=O)[C@H](CCCNC(=N)N)NC(=O)[C@H](CCCNC(=N)N)NC(=O)[C@H](CCSC)NC(=O)[C@@H](NC(=O)[C@H](CCCCNC(C)=S)NC(=O)CNC(=O)[C@H](CO)NC(=O)[C@H](CCCNC(=N)N)NC(=O)[C@@H](NC(=O)[C@H](CCCCN)NC(=O)[C@@H]1CCCN1C(=O)[C@H](CC(C)C)NC(=O)[C@H](CCCNC(=N)N)NC(=O)[C@@H](N)CCCCN)[C@@H](C)O)C(C)C)[C@@H](C)CC)C(=O)O` [Peptide 3a] (H-KRLPKTRSG[Lys(Thioacetyl)]VMRRLLRKII-OH), at HDAC8, the “formation of de(thio)acetylated peptide product by HDAC8” value is reported as “no detectable formation” and the “HDAC8 (sensitive / resistant to HDAC8)” value is listed as “—”. In the test on SIRT1, SIRT2, and SIRT3, the “formation of dethioacetylated peptide under sirtuin inhibition assay conditions” value was “did not give rise to detectable formation”.

Consider `CC[C@H](C)[C@H](NC(=O)[C@@H](NC(=O)[C@H](CCCCNC(C)=S)NC(=O)[C@H](CC(=O)O)NC(=O)[C@H](CO)NC(=O)[C@@H]1CCCN1C(=O)[C@@H](N)CCSC)[C@@H](C)O)C(=O)NCC(=O)NCC(=O)O` [Peptide 2] (H-MPSD[Lys(Thioacetyl)]TIGG-OH), for which, at HDAC8, the “formation of de(thio)acetylated peptide product by HDAC8” value was “no detectable formation” and the “HDAC8 (sensitive / resistant to HDAC8)” value is given as “—^d”. The “formation of dethioacetylated peptide under sirtuin inhibition assay conditions” value in the test on SIRT1, SIRT2, and SIRT3 is on record as “detectable formation”.
